Experimental data from patent US8697739B2, “Bicyclic acetyl-CoA carboxylase inhibitors and uses thereof” (Novartis AG, priority 2010, dated 2014).
pIC50: −log10 of the molar value.

Molecular target: T1, human acetyl-CoA carboxylase 2 (ACC2) (Homo sapiens, UniProt O00763)
T1 construct: The cDNA encoding amino acids 144 to 2458 of human acetyl-CoA carboxylase 2; made in house; host or cells: Sf9 insect cells (baculovirus, pFastBac1)
Assay: Acetyl-CoA carboxylase enzyme assay (malonyl-CoA formation by LC/MS/MS)
Assay type: biochemical
Conditions: recombinant human ACC2 (aa 144-2458); read-out: IC50 ACC2
Procedure, shortened: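 Malonyl-CoA formation was read by LC/MS/MS MRM against a [13C3]-malonyl-CoA internal standard, after acetic acid quench. The enzyme was baculovirus/Sf9-expressed human ACC2 residues 144–2458, given 15 minutes room-temperature compound preincubation in HEPES pH 7.5 buffer with MgCl2, citrate and DTT. Substrate solution held 50 μM acetyl-CoA, 120 μM ATP and 2 mM KHCO3.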

T1 sequence (O00763 144-2458): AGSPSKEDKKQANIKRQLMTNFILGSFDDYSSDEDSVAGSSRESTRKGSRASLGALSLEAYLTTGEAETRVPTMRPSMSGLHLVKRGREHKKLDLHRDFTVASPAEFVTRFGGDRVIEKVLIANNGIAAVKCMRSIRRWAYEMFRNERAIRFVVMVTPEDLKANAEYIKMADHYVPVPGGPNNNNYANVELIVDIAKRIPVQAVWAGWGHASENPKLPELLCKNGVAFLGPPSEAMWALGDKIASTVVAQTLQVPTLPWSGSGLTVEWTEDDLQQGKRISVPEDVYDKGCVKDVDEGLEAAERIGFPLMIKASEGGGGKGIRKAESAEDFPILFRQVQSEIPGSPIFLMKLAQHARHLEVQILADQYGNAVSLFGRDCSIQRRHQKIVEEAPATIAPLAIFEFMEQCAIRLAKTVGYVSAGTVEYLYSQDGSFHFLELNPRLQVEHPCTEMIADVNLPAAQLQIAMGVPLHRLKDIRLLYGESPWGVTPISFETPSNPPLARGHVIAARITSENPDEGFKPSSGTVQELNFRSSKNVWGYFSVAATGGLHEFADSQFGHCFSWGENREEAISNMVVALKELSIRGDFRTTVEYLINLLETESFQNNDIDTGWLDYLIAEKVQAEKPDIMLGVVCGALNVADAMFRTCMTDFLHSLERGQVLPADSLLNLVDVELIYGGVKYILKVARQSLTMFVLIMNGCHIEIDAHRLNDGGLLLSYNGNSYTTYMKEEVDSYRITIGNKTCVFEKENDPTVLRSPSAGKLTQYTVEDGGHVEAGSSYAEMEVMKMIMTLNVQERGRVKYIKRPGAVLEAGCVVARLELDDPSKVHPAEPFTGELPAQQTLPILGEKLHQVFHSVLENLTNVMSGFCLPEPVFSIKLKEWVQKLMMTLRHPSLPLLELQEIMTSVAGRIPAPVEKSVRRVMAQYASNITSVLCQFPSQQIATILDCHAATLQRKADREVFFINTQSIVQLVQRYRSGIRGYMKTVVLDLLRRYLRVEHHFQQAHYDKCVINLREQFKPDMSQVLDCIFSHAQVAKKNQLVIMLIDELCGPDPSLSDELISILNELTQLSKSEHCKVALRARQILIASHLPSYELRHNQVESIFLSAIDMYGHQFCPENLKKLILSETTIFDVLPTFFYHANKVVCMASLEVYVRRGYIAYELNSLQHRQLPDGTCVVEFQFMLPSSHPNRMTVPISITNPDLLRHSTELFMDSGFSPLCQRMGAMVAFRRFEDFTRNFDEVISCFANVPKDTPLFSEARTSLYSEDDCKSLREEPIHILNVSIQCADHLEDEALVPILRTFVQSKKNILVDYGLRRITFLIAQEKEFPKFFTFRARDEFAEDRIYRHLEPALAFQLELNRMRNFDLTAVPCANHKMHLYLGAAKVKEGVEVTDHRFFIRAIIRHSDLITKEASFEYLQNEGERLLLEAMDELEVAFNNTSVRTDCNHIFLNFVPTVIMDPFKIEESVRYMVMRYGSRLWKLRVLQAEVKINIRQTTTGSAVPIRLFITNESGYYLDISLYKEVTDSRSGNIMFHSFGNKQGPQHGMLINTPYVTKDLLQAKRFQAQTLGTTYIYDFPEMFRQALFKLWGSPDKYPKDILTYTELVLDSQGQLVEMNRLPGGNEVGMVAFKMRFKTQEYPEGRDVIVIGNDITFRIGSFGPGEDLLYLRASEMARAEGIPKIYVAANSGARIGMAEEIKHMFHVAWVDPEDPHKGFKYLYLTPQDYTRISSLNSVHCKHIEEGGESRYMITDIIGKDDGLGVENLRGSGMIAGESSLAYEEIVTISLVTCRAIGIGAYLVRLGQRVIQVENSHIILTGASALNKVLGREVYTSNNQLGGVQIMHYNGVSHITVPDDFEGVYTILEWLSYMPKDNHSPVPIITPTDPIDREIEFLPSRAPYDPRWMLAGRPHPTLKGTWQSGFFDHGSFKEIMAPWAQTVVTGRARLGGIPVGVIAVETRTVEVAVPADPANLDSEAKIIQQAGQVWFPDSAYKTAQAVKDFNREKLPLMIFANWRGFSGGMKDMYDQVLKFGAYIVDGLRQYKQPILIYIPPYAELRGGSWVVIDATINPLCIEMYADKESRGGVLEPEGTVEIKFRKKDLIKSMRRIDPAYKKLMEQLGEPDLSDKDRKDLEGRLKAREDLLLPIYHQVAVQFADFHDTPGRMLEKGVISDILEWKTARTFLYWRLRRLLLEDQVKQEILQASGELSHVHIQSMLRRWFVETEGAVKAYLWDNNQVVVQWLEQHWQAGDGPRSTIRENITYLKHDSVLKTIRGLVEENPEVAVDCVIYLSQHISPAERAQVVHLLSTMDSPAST

Row | SMILES | pIC50
1 | O=C(NC1Cc2ccccc2C1)[C@H]1CC[C@H](NS(=O)(=O)c2ccc3[nH]c(-c4ccccc4)nc3c2)CC1 [Example 638, (1r,4r)-N-(2,3-dihydro-1H-inden-2-yl)-4-(2-phenyl-1H-benzo[d]imidazole-5-sulfonamido)cyclohexanecarboxamide] | 6.90
2 | O=C(NCc1cc(F)cc(F)c1)[C@H]1CC[C@H](NS(=O)(=O)c2ccc3[nH]c(-c4ccccc4)nc3c2)CC1 [Example 644, (1r,4r)-N-(3,5-difluorobenzyl)-4-(2-phenyl-1H-benzo[d]imidazole-5-sulfonamido)cyclohexanecarboxamide] | 6.23
3 | O=C(Nc1cccc2ccccc12)[C@H]1CC[C@H](NS(=O)(=O)c2ccc3[nH]c(-c4ccccc4)nc3c2)CC1 [Example 645, (1r,4r)-N-(naphthalen-1-yl)-4-(2-phenyl-1H-benzo[d]imidazole-5-sulfonamido)cyclohexanecarboxamide] | 5.97
4 | O=C(Nc1cc(F)cc(F)c1)[C@H]1CC[C@H](NS(=O)(=O)c2ccc3[nH]c(-c4ccccc4)nc3c2)CC1 [Example 646, (1r,4r)-N-(3,5-difluorophenyl)-4-(2-phenyl-1H-benzo[d]imidazole-5-sulfonamido)cyclohexanecarboxamide] | 5.87
5 | O=C(Nc1ccc2ncccc2c1)[C@H]1CC[C@H](NS(=O)(=O)c2ccc3[nH]c(-c4ccccc4)nc3c2)CC1 [Example 647, (1r,4r)-4-(2-phenyl-1H-benzo[d]imidazole-5-sulfonamido)-N-(quinolin-6-yl)cyclohexanecarboxamide] | 6.14
6 | O=C(Nc1cccc(C(F)(F)F)c1)[C@H]1CC[C@H](NS(=O)(=O)c2ccc3[nH]c(-c4ccccc4)nc3c2)CC1 [Example 648, (1r,4r)-4-(2-phenyl-1H-benzo[d]imidazole-5-sulfonamido)-N-(3-(trifluoromethyl)phenyl)cyclohexanecarboxamide] | 5.74

Next, values leading:

Row | pIC50 | SMILES
7 | 5.77 | O=C(NC1CCCc2ccccc21)[C@H]1CC[C@H](NS(=O)(=O)c2ccc3[nH]c(-c4ccccc4)nc3c2)CC1 (stereo partly shown) [Example 636, (1r,4r)-4-(2-phenyl-1H-benzo[d]imidazole-5-sulfonamido)-N-(1,2,3,4-tetrahydronaphthalen-1-yl)cyclohexanecarboxamide]
8 | 6.43 | O=C(NCC1CC1)[C@H]1CC[C@H](NS(=O)(=O)c2ccc3[nH]c(-c4ccccc4)nc3c2)CC1 [Example 637, (1r,4r)-N-(cyclopropylmethyl)-4-(2-phenyl-1H-benzo[d]imidazole-5-sulfonamido)cyclohexanecarboxamide]
9 | 6.45 | O=C(NCC1CCCCC1)[C@H]1CC[C@H](NS(=O)(=O)c2ccc3[nH]c(-c4ccccc4)nc3c2)CC1 [Example 639, (1r,4r)-N-(cyclohexylmethyl)-4-(2-phenyl-1H-benzo[d]imidazole-5-sulfonamido)cyclohexanecarboxamide]
10 | 6.02 | O=C(NCc1cccnc1)[C@H]1CC[C@H](NS(=O)(=O)c2ccc3[nH]c(-c4ccccc4)nc3c2)CC1 [Example 640, (1r,4r)-4-(2-phenyl-1H-benzo[d]imidazole-5-sulfonamido)-N-(pyridin-3-ylmethyl)cyclohexanecarboxamide]
11 | 6.56 | O=C(NCC1CCCCCC1)[C@H]1CC[C@H](NS(=O)(=O)c2ccc3[nH]c(-c4ccccc4)nc3c2)CC1 [Example 641, (1r,4r)-N-(cycloheptylmethyl)-4-(2-phenyl-1H-benzo[d]imidazole-5-sulfonamido)cyclohexanecarboxamide]
12 | 5.87 | COCCCNC(=O)[C@H]1CC[C@H](NS(=O)(=O)c2ccc3[nH]c(-c4ccccc4)nc3c2)CC1 [Example 642, (1r,4r)-N-(3-methoxypropyl)-4-(2-phenyl-1H-benzo[d]imidazole-5-sulfonamido)cyclohexanecarboxamide]
13 | 6.55 | O=C(NCCc1cccnc1)[C@H]1CC[C@H](NS(=O)(=O)c2ccc3[nH]c(-c4ccccc4)nc3c2)CC1 [Example 643, (1r,4r)-4-(2-phenyl-1H-benzo[d]imidazole-5-sulfonamido)-N-(2-(pyridin-3-yl)ethyl)cyclohexanecarboxamide]
